Test results as given in patent publication US4956376A, “Tetrazole carboxylic acids and esters and inhibition of blood platelet aggregation therewith” (Bristol-Myers Squibb Company, priority 1990, dated 1990).
≈ marks a conversion by molar mass, not a printed value. Like-named read-outs stand apart in the source and are kept apart here.

Test system: human platelet aggregation
Type: cell-based
Conditions: human platelet rich plasma, ADP 0.5 mcg/mL
[1] = Table 1, read-out: Inhibition of Human Platelet Aggregation of Formula I Compounds (IC50) vs. ADP
[2] = Table 2, read-out: Inhibition of Human Platelet Aggregation of Formula II Compounds (IC50) Vs ADP

IC50 [1] | IC50 [2] | Compound
> 32 µg/mL | – | COC(=O)CCCCCCCCn1nnc(C(c2ccccc2)c2ccccc2)n1 [Example 1, Methyl 5-(diphenylmethyl)-2H-tetrazole-2-nonanoate]
4.2 µg/mL (≈ 10.7 µM) | – | O=C(O)CCCCCCCCn1nnc(C(c2ccccc2)c2ccccc2)n1 [Example 2, 5-(Diphenylmethyl)-2H-tetrazole-1-nonanoic acid]
– | 0.9 µg/mL (≈ 2.1 µM) | COC(=O)COc1cccc(CCn2nnc(C(c3ccccc3)c3ccccc3)n2)c1 [Example 3, Methyl [3-[2-[5-(diphenylmethyl)-2H-tetrazol-2-yl]ethyl]-phenoxy]acetate]
– | 1.4 µg/mL (≈ 3.38 µM) | O=C(O)COc1cccc(CCn2nnc(C(c3ccccc3)c3ccccc3)n2)c1 [Example 4, [3-[2-[5-(Diphenylmethyl)-2H-tetrazol-2-yl]ethyl]phenoxy]-acetic Acid]
